Assay results as given in US20170298056A1, “SMALL MOLECULE INHIBITORS OF HIV-1 ENTRY AND METHODS OF USE THEREOF” (Dana-Farber Cancer Institute, Inc., priority 2014, published 2017).

What was measured:
HIV-1KB9 = assay: Viral infection assay, dual-tropic isolate; format: cell-based; conditions: dual-tropic HIV-1KB9
Procedure: Production of recombinant HIV-1 expressing luciferase. 293T cells were cotransfected with an Env expression plasmid, a firefly luciferase-expressing lentiviral vector (pHIVcc2.luc) and an HIV-1-based packaging plasmid (psPAX2, cat #11348, NIH AIDS Research and Reference Reagent Program) at a ratio of 1:6:3 using Effectene (Qiagen, Germantown, Md.). After 48 hours, the supernatant was collected, buffered with 50 mM Hepes pH 7.4 (final concentration) and centrifuged for 5 minutes at 750×g and 4° C. The virus-containing supernatant was used directly or frozen at −80° C.
Viral infection assay. Each test compound was serially diluted in DMSO in a 96-well B&W isoplate (PerkinElmer, Boston, Mass.) using an HP D300 Digital Dispenser, to a final volume of 450 nl. DMSO was used as a control. Viruses pseudotyped with a specific Env were added to each well and incubated briefly at room temperature. […] The activity of the firefly luciferase, which was used as a reporter protein in the system, was measured with a Centro LB 960 luminometer (Berthold Technologies, Oak Ridge, Tenn.). One hundred microliters of assay buffer (15 mM MgSO4, 15 mM KH2PO4/K2HPO4 pH 7.8, 1 mM ATP and 1 mM DTT) was injected to each well, followed by a 50 μl injection of 1 mM Dluciferin potassium salt (BD Pharmingen, San Jose, Calif.); luminescence was measured for 2 sec. […]

[1] = test system: cell-surface HIV-1JR-FL WTKA Env; assay: Binding of 17b, 19b, 2G12, PGT121 antibodies to cell-surface Env (flow cytometry)
Procedure: Flow cytometry. […] After 48-72 hours, cells were detached with 5 mM EDTA/PBS and between 0.5-1 million cells were briefly incubated with various concentrations of 18A and then with or without the indicated concentrations of sCD4. C34-Ig (at a final concentration of 20 μg/ml) or a specified antibody (at final concentration of 1 μg/ml) was added to the cells. […] Cells were washed twice and analyzed with a BD FACSCanto II flow cytometer (BD Biosciences). For analysis of resistant mutants (FIG. 5e-g), the measurements were normalized for the level of sCD4 binding of each mutant, and the response of each mutant was further normalized to that of the wild-type HIV-1JR-FL E168K+N188AΔCT Env (herein designated WTKA). […] The sCD4 IC50/sCD4 binding ratio (FIGS. 4c and e) was calculated as follows. Binding of sCD4 to different envelope mutants was measured by flow cytometry and normalized first to 2G12 binding to account for potentially different Env expression levels, and then to sCD4 binding to the wild-type HIV-1JR-FL Env. The IC50 of sCD4 for inhibition of virus infection by each mutant Env was divided by the normalized sCD4 binding to Env-expressing cells to calculate the sCD4 IC50/sCD4 binding value.

Structure (SMILES): O=C(N/N=C/c1ccc(O)cc1)Nc1cccc2nsnc12 [Compound 18A]
- inhibition of infection (HIV-1KB9): relatively resistant to inhibition
- binding of 19b and 2G12, sCD4-induced decrease of PGT121 binding [1]: No significant effect
- 17b binding to cell surface-expressed Env trimer ([1]; in the presence of 18A, no sCD4): reduction in 17b binding
